How the values were obtained:
ROCK2 = ROCK2 (Homo sapiens (Human), UniProt O75116); assay: ROCK assay (LABCHIP peptide phosphorylation), ROCK2; type: biochemical; conditions: 5 μM ATP, 1.5 μM peptide substrate
ROCK1 = ROCK1 (Homo sapiens (Human), UniProt Q13464); assay: ROCK assay (LABCHIP peptide phosphorylation), ROCK1; type: biochemical; conditions: 5 μM ATP, 1.5 μM peptide substrate; read-out: ROCK1 IC50
ROCK1, sequence (Q13464 whole entry, species assumed): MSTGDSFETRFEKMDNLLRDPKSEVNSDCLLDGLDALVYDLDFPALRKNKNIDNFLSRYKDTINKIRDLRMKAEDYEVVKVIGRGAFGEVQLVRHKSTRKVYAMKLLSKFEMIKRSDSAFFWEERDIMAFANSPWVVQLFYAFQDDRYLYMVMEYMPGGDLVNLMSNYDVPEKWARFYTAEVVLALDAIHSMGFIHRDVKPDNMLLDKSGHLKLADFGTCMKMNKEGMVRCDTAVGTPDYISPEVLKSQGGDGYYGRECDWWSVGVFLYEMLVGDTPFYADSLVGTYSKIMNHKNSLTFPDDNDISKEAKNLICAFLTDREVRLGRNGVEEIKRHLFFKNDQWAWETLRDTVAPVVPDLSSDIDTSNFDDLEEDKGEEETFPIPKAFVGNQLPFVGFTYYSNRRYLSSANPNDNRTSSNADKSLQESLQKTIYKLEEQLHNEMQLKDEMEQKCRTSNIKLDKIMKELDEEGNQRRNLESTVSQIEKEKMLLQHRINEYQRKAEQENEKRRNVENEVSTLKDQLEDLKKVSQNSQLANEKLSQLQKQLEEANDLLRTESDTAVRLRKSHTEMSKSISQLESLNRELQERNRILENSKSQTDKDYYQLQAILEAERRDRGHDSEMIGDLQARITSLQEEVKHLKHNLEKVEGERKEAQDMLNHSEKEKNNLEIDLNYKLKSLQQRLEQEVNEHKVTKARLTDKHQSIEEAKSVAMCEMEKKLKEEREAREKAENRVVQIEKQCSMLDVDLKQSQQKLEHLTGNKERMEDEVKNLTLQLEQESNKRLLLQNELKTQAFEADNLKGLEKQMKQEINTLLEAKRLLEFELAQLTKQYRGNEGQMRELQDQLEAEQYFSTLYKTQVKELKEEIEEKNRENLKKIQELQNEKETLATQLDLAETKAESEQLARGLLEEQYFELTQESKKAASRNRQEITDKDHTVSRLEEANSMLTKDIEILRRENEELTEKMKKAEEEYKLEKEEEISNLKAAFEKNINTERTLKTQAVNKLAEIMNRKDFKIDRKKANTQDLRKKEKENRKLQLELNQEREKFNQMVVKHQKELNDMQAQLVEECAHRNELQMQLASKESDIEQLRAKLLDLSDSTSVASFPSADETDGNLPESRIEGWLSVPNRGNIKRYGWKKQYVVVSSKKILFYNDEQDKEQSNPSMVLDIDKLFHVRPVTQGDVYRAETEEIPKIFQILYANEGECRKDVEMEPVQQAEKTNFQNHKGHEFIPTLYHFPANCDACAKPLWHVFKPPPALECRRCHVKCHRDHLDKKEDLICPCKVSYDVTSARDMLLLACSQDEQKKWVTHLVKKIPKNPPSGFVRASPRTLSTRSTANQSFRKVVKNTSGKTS

ROCK2, sequence (O75116 whole entry, species assumed): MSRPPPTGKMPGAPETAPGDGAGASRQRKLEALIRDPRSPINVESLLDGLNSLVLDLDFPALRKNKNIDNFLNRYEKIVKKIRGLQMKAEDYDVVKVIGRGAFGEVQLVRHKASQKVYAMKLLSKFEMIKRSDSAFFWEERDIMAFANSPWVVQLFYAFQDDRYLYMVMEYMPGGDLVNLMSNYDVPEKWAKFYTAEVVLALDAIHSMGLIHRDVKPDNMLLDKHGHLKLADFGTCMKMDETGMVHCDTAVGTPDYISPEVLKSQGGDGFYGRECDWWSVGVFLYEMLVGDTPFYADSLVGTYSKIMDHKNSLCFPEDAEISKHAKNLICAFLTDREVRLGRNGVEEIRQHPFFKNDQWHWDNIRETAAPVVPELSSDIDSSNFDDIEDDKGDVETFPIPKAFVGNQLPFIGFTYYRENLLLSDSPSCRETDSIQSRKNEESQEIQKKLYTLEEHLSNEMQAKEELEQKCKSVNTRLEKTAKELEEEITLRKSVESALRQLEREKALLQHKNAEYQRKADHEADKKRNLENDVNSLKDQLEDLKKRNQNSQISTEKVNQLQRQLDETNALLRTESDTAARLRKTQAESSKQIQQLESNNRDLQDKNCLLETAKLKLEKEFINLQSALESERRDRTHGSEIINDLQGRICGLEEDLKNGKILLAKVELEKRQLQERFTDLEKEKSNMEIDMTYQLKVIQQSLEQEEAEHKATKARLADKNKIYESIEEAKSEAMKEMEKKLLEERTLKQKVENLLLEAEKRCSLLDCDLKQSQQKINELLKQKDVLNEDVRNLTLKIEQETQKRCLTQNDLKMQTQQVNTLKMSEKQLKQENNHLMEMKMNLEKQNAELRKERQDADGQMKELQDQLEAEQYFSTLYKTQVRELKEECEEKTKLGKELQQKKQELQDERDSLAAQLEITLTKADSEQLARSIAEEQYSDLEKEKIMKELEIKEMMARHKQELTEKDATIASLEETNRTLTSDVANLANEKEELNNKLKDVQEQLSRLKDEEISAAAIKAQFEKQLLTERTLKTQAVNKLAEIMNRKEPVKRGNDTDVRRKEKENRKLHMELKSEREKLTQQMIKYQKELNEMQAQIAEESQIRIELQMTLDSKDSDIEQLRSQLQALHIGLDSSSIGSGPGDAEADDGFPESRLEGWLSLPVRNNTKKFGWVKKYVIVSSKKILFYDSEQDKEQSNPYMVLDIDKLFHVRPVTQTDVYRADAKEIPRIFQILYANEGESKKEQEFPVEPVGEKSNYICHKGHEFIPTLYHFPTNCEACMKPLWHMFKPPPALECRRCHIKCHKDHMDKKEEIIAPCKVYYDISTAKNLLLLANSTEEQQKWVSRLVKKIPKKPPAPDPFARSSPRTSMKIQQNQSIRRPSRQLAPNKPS

Row | SMILES | IC50 (ROCK2) | IC50 (ROCK1)
1 | CN1CC(=O)c2c(C(=O)Nc3ccc(-c4n[nH]c(=O)c5ccccc45)cc3)coc2C1 [Example 111, 6-methyl-4-oxo-N-[4-(4-oxo-3,4-dihydrophthalazin-1-yl)phenyl]-4H,5H,6H,7H-furo[2,3-c]pyridine-3-carboxamide] | 101 to 1000 nM | 101 to 1000 nM
2 | O=C(Nc1ccc(-c2n[nH]c(=O)c3ccccc23)cc1)c1nc2ncccn2n1 [Example 112, N-[4-(4-oxo-3,4-dihydrophthalazin-1-yl)phenyl]-[1,2,4]triazolo[1,5-a]pyrimidine-2-carboxamide] | 101 to 1000 nM | 1000 to 50000 nM
3 | O=C(Nc1ccc(-c2n[nH]c(=O)c3ccccc23)cc1)c1cnn2cccnc12 [Example 113, N-[4-(4-oxo-3,4-dihydrophthalazin-1-yl)phenyl]pyrazolo[1,5-a]pyrimidine-3-carboxamide] | 101 to 1000 nM | 101 to 1000 nM
4 | O=C(Nc1ccc(-c2n[nH]c(=O)c3ccccc23)cc1)c1noc2ccccc12 [Example 118, N-[4-(4-oxo-3,4-dihydrophthalazin-1-yl)phenyl]-1,2-benzoxazole-3-carboxamide] | 0.1 to 100 nM | 101 to 1000 nM
5 | O=C(Nc1ccc(-c2n[nH]c(=O)c3ccccc23)cc1)c1cc2cc(Cl)cnc2[nH]1 [Example 119, 5-chloro-N-[4-(4-oxo-3,4-dihydrophthalazin-1-yl)phenyl]-1H-pyrrolo[2,3-b]pyridine-2-carboxamide] | 0.1 to 100 nM | 101 to 1000 nM
6 | Cc1cn2cc(C(=O)Nc3ccc(-c4n[nH]c(=O)c5ccccc45)cc3)nc2cn1 [Example 121, 6-methyl-N-[4-(4-oxo-3,4-dihydrophthalazin-1-yl)phenyl]imidazo[1,2-a]pyrazine-2-carboxamide] | 0.1 to 100 nM | 101 to 1000 nM
7 | Cn1cc(C(=O)Nc2ccc(-c3n[nH]c(=O)c4ccccc34)cc2)c2ccccc21 [Example 122, 1-methyl-N-[4-(4-oxo-3,4-dihydrophthalazin-1-yl)phenyl]-1H-indole-3-carboxamide] | 0.1 to 100 nM | 0.1 to 100 nM
8 | COc1ccc2[nH]nc(C(=O)Nc3ccc(-c4n[nH]c(=O)c5ccccc45)cc3)c2c1 [Example 123, 5-methoxy-N-[4-(4-oxo-3,4-dihydrophthalazin-1-yl)phenyl]-1H-indazole-3-carboxamide] | 0.1 to 100 nM | 101 to 1000 nM
9 | COc1ccc2[nH]c(C(=O)Nc3ccc(-c4n[nH]c(=O)c5ccccc45)cc3)cc2c1 [Example 125, 5-methoxy-N-[4-(4-oxo-3,4-dihydrophthalazin-1-yl)phenyl]-1H-indole-2-carboxamide] | 0.1 to 100 nM | 0.1 to 100 nM
10 | Cc1ccn2cc(C(=O)Nc3ccc(-c4n[nH]c(=O)c5ccccc45)cc3)nc2c1 [Example 126, 7-methyl-N-[4-(4-oxo-3,4-dihydrophthalazin-1-yl)phenyl]imidazo[1,2-a]pyridine-2-carboxamide] | 0.1 to 100 nM | 101 to 1000 nM
11 | COc1ccc2cc(C(=O)Nc3ccc(-c4n[nH]c(=O)c5ccccc45)cc3)n(C)c2c1 [Example 127, 6-methoxy-1-methyl-N-[4-(4-oxo-3,4-dihydrophthalazin-1-yl)phenyl]-1H-indole-2-carboxamide] | 0.1 to 100 nM | 0.1 to 100 nM
12 | CC(C)Oc1ccc2cc(C(=O)Nc3ccc(-c4n[nH]c(=O)c5ccccc45)cc3)[nH]c2c1 [Example 128, N-[4-(4-oxo-3,4-dihydrophthalazin-1-yl)phenyl]-6-(propan-2-yloxy)-1H-indole-2-carboxamide] | 0.1 to 100 nM | 0.1 to 100 nM
13 | COc1cccc2cc(C(=O)Nc3ccc(-c4n[nH]c(=O)c5ccccc45)cc3)[nH]c12 [Example 129, 7-methoxy-N-[4-(4-oxo-3,4-dihydrophthalazin-1-yl)phenyl]-1H-indole-2-carboxamide] | 0.1 to 100 nM | 0.1 to 100 nM
14 | CCOc1ccc2c(c1)cc(C(=O)Nc1ccc(-c3n[nH]c(=O)c4ccccc34)cc1)n2C [Example 130, 5-ethoxy-1-methyl-N-[4-(4-oxo-3,4-dihydrophthalazin-1-yl)phenyl]-1H-indole-2-carboxamide] | 0.1 to 100 nM | 0.1 to 100 nM
15 | Cn1nc2ccccc2c1C(=O)Nc1ccc(-c2n[nH]c(=O)c3ccccc23)cc1 [Example 131, 2-methyl-N-[4-(4-oxo-3,4-dihydrophthalazin-1-yl)phenyl]-2H-indazole-3-carboxamide] | 0.1 to 100 nM | 0.1 to 100 nM
16 | CC(C)n1nc(C(=O)Nc2ccc(-c3n[nH]c(=O)c4ccccc34)cc2)c2ccccc21 [Example 132, N-[4-(4-oxo-3,4-dihydrophthalazin-1-yl)phenyl]-1-(propan-2-yl)-1H-indazole-3-carboxamide] | 0.1 to 100 nM | 0.1 to 100 nM

More lines, now with the values ahead:

Row | IC50 (ROCK2) | IC50 (ROCK1) | SMILES
17 | 0.1 to 100 nM | 1000 to 50000 nM | O=C(Nc1ccc(-c2n[nH]c(=O)c3ccccc23)cc1)C1Cc2cc(O)ccc2O1 (centres unmarked) [Example 106, 5-hydroxy-N-[4-(4-oxo-3,4-dihydrophthalazin-1-yl)phenyl]-2,3-dihydro-1-benzofuran-2-carboxamide]
18 | 0.1 to 100 nM | 0.1 to 100 nM | CCn1c(C(=O)Nc2ccc(-c3n[nH]c(=O)c4ccccc34)cc2)cc2ccccc21 [Example 107, 1-ethyl-N-[4-(4-oxo-3,4-dihydrophthalazin-1-yl)phenyl]-1H-indole-2-carboxamide]
19 | 0.1 to 100 nM | 101 to 1000 nM | CC(C)c1c(C(=O)Nc2ccc(-c3n[nH]c(=O)c4ccccc34)cc2)cn2nc[nH]c(=O)c12 [Example 108, 4-oxo-N-[4-(4-oxo-3,4-dihydrophthalazin-1-yl)phenyl]-5-(propan-2-yl)-3H,4H-pyrrolo[2,1-f][1,2,4]triazine-6-carboxamide]
20 | 0.1 to 100 nM | 0.1 to 100 nM | O=C(Nc1ccc(-c2n[nH]c(=O)c3ccccc23)cc1)c1n[nH]c2c1C(=O)CCC2 [Example 109, 4-oxo-N-[4-(4-oxo-3,4-dihydrophthalazin-1-yl)phenyl]-4,5,6,7-tetrahydro-1H-indazole-3-carboxamide]
21 | 0.1 to 100 nM | 0.1 to 100 nM | O=C(Nc1ccc(-c2n[nH]c(=O)c3ccccc23)cc1)c1n[nH]c2ncccc12 [Example 110, N-[4-(4-oxo-3,4-dihydrophthalazin-1-yl)phenyl]-1H-pyrazolo[3,4-b]pyridine-3-carboxamide]
22 | 0.1 to 100 nM | 101 to 1000 nM | O=C(Nc1ccc(-c2n[nH]c(=O)c3ccccc23)cc1)c1n[nH]c2ccc(Cl)cc12 [Example 114, 5-chloro-N-[4-(4-oxo-3,4-dihydrophthalazin-1-yl)phenyl]-1H-indazole-3-carboxamide]
23 | 0.1 to 100 nM | 0.1 to 100 nM | O=C(Nc1ccc(-c2n[nH]c(=O)c3ccccc23)cc1)c1nc2ccccc2s1 [Example 115, N-[4-(4-oxo-3,4-dihydrophthalazin-1-yl)phenyl]-1,3-benzothiazole-2-carboxamide]
24 | 0.1 to 100 nM | 0.1 to 100 nM | Cn1nc2c(c1C(=O)Nc1ccc(-c3n[nH]c(=O)c4ccccc34)cc1)CCCC2 [Example 116, 2-methyl-N-[4-(4-oxo-3,4-dihydrophthalazin-1-yl)phenyl]-4,5,6,7-tetrahydro-2H-indazole-3-carboxamide]
25 | 0.1 to 100 nM | 0.1 to 100 nM | COc1cccc2[nH]cc(C(=O)Nc3ccc(-c4n[nH]c(=O)c5ccccc45)cc3)c12 [Example 117, 4-methoxy-N-[4-(4-oxo-3,4-dihydrophthalazin-1-yl)phenyl]-1H-indole-3-carboxamide]
